Reference: the PolyMetriX glass transition set
± gives the standard deviation of the reports.

Compound | glass transition temperature [°C]
*Oc1ccc(OC(=O)c2cccc(C(*)=O)c2)cc1 (repeat unit) | 186.00
*c1ccc2nc(-c3ccc4c(c3)C(=O)N(c3cc(C(*)(C(F)(F)F)C(F)(F)F)ccc3O)C4=O)oc2c1 (repeat unit) | 329.00
*c1ccc(-c2ccc(N3C(=O)c4ccc(-c5cccc6c5C(=O)N(*)C6=O)cc4C3=O)cc2C(F)(F)F)c(C(F)(F)F)c1 (repeat unit) | 346.00
*c1cc(Br)c(-c2c(Br)cc(N3C(=O)c4ccc(-c5ccc6c(c5)C(=O)N(*)C6=O)cc4C3=O)cc2C(=O)OCCCC)c(C(=O)OCCCC)c1 (repeat unit) | 196.00
*CC(*)(C)C(=O)OCCCCCCN1CCN(c2ccc(/N=N/c3ccc(C#N)cc3)cc2)CC1 (repeat unit) | 77.00
*Oc1ccc(CC(NC(=O)CCc2ccc(OC(=O)COCCOCC(*)=O)cc2)C(=O)OCC)cc1 (repeat unit) | 53.00
*CCC(C)(C)CC(C)CNC(=O)CCCCC(=O)N* (repeat unit) | 65.00
*CC(*)c1ccc(C(C)C)cc1 (repeat unit) | 62.40
*CC(CCCCCCOc1ccc(/N=N/c2ccc(Cl)cc2)cc1)COC(=O)CCCCC(=O)O* (repeat unit) | 9.00
*/C=C/C1CC(*)C(C#N)(CCC)C1 (repeat unit) | 108.00
*CCOC(=O)Nc1ccc(C)c(NC(=O)OCCOc2cc([N+](=O)[O-])ccc2/N=N/c2cn(*)c3ccccc23)c1 (repeat unit) | 150.00
*Oc1ccc(C2(c3ccc(OC(=O)c4ccc(C(*)=O)cc4)c(C)c3)CCC3CCCCC3C2)cc1C (repeat unit) | 247.00
*C#Cc1cccc(C#C[SiH](*)C)c1 (repeat unit) | 72.00
*OC(=O)OCCCCOC(=O)OC1COC2C(*)COC12 (repeat unit) | 49.00
*c1c(C)cc(C)c(N2C(=O)c3ccc(-c4ccc5c(c4)C(=O)N(*)C5=O)cc3C2=O)c1C (repeat unit) | 385.00
*CC(*)(C)C(=O)OCCCCn1c2ccccc2c2cc(/N=N/c3ccc([N+](=O)[O-])cc3[N+](=O)[O-])ccc21 (repeat unit) | 132.00
*CCCCOc1cccc(C(=O)OC(=O)c2cccc(O*)c2)c1 (repeat unit) | 20.00
*/C(Cl)=C(/*)CCCC (repeat unit) | 190.00
*c1cccc(P(=O)(c2ccccc2)c2cccc(N3C(=O)c4ccc(NC(=O)OCCOc5ccc(C(c6ccc(OCCOC(=O)Nc7ccc8c(c7)C(=O)N(*)C8=O)cc6)(C(F)(F)F)C(F)(F)F)cc5)cc4C3=O)c2)c1 (repeat unit) | 214.00
*CC(CCCCCC)O* (repeat unit) | -67.00
*CC(*)Cl (repeat unit) [Poly(vinyl chloride)] | 78.42 ± 2.2
*OC1CCC(OC(*)=O)CC1 (repeat unit) | 138.00
*CCCCOC(=O)c1cccc(C(=O)O*)c1 (repeat unit) [Poly(tetramethylene isophthalate)] | 21.42 ± 3.4
*Oc1ccc(CC(NC(=O)CCc2ccc(OC(=O)CCCCCCC(*)=O)cc2)C(=O)OCCCCCCCCCCCC)cc1 (repeat unit) | 15.00
*CCCCCCOc1ccc(/C=C2\CC/C(=C\c3ccc(OCCCCCCOP(=O)(O*)OCC)c(OC)c3)C2=O)cc1OC (repeat unit) | 75.00

The next lines start with the values.

glass transition temperature [°C] | Compound
190.8 | *c1ccc(Sc2ccc(Sc3ccc(N4C(=O)c5ccc(Sc6ccc(Sc7ccc(Sc8ccc9c(c8)C(=O)N(*)C9=O)cc7)cc6)cc5C4=O)cc3)cc2)cc1 (repeat unit)
372.00 | *c1ccc(-c2ccc(N3C(=O)c4ccc(-c5cccc6c5C(=O)N(*)C6=O)cc4C3=O)cc2C)c(C)c1 (repeat unit)
248.50 | *Oc1ccc(-c2ccc(NC(=O)c3cc(C(=O)Nc4ccc(-c5ccc(Oc6ccc(C(C)(C)c7ccc(*)cc7)cc6)c(C(F)(F)F)c5)cc4)cc(C(C)(C)C)c3)cc2)cc1C(F)(F)F (repeat unit)
276.00 | *OC(=O)c1cccc(C(=O)Oc2ccc3c(c2)Oc2cc(*)ccc2C32OC(=O)c3ccccc32)c1 (repeat unit)
247.00 | *Nc1cc(NC(=O)c2ccc3cc(C(*)=O)ccc3c2)cc(C(=O)OCCOc2ccc(/C=C/C(=O)c3ccccc3)cc2)c1 (repeat unit)
173.00 | *Oc1ccc(C(C)(C)c2ccc(C(C)(C)c3ccc(Oc4ccc(C(=O)Nc5cccc(NC(=O)c6ccc(*)cc6)c5)cc4)cc3)cc2)cc1 (repeat unit)
215.00 | *Oc1ccc(C2(c3ccc(Oc4ccc(C(=O)c5ccccc5)c(-c5cc(*)ccc5C(=O)c5ccccc5)c4)cc3)c3ccccc3-c3ccccc32)cc1 (repeat unit)
290.00 | *c1ccc2oc3ccc(S(=O)(=O)c4ccc(Oc5ccc(S(*)(=O)=O)cc5)cc4)cc3c2c1 (repeat unit)
150.00 | *CCNC(=O)c1ccc([Si](C)(C)c2ccc(C(=O)NCCN(*)c3ccc(/C=C/c4ccc([N+](=O)[O-])cc4)cc3)cc2)cc1 (repeat unit)
272.00 | *Nc1ccc(C(c2ccc(NC(=O)c3cccc(C(*)=O)c3)cc2)(C(F)(F)F)C(F)(F)F)cc1 (repeat unit)
228.00 | *Oc1ccc(S(=O)(=O)c2ccc(Oc3ccc(C(C)(c4ccc(*)cc4)c4ccc(O)cc4)cc3)cc2)cc1 (repeat unit)
177.00 | *Oc1ccc(S(=O)(=O)c2ccc(Oc3ccc(NC(=O)c4ccc(Oc5ccc(C(C)(C)c6ccc(C(C)(C)c7ccc(Oc8ccc(C(=O)Nc9ccc(*)cc9)cc8)cc7)cc6)cc5)cc4)cc3)cc2)cc1 (repeat unit)
162.00 | *Oc1ccc(C(C)(C)c2ccc(OC(=O)c3cccc(C(*)=O)c3)c(C)c2)cc1C (repeat unit)
154.00 | *Oc1ccc(NC(=O)c2ccc(Oc3ccc(C(C)(C)c4cccc(C(C)(C)c5ccc(Oc6ccc(C(=O)Nc7ccc(Oc8ccc(C(c9ccc(*)cc9)(C(F)(F)F)C(F)(F)F)cc8)cc7)cc6)cc5)c4)cc3)cc2)cc1 (repeat unit)
233.00 | *C(=O)c1ccc2c(c1)C(=O)N(c1ccc(Oc3ccc(C(=O)c4ccc(C(=O)c5ccc(C(=O)c6ccc(Oc7ccc(N8C(=O)c9ccc(*)cc9C8=O)cc7)cc6)cc5)cc4)cc3)cc1)C2=O (repeat unit)
292.50 | *c1ccc(Oc2ccc(-c3nc4cc(-c5ccc6nc(*)c(-c7ccccc7)nc6c5)ccc4nc3-c3ccccc3)cc2)cc1 (repeat unit)
304.00 | *c1ccc(N(c2ccc(C#N)cc2)c2ccc(N3C(=O)c4ccc(Oc5ccc6c(c5)C(=O)N(*)C6=O)cc4C3=O)cc2)cc1 (repeat unit)

glass transition temperature [°C] | Compound
126.00 | *Oc1ccc(Oc2ccc(OC(=O)c3cc(OCCCCC)cc(C(*)=O)c3)cc2)cc1 (repeat unit)
85.00 | *CC(O)COc1ccc(C(C)(C)c2ccc(OCC(O)COc3ccc(Oc4ccc(O*)cc4)cc3)cc2)cc1 (repeat unit)
245.00 | *c1ccc(Oc2ccc(C(=O)c3ccc(Oc4ccc(C(=O)c5ccc(Oc6ccc(-c7nc(-c8ccc(-c9nc(*)c(-c%10ccccc%10)[nH]9)cc8)[nH]c7-c7ccccc7)cc6)cc5)cc4)cc3)cc2)cc1 (repeat unit)
260.00 | *Oc1ccc(C(=O)c2ccc(Oc3ccc(C4(c5ccc(*)cc5)c5ccccc5-c5ccccc54)cc3)cc2)c2ccccc12 (repeat unit)
180.00 | *Oc1ccc(S(=O)(=O)c2ccc(Oc3ccc(C(C)(C)c4ccc(*)c(C)c4)cc3C)cc2)cc1 (repeat unit)
67.00 | *CC(*)C(=O)OCCCCCCCCCCCCOc1ccc(C(=O)Oc2ccc(-c3cccc(OC(=O)c4ccc(OC(=O)c5ccc(OCCCCCCCCCCCC)cc5)cc4)c3)cc2)cc1 (repeat unit)
362.00 | *C(=O)c1ccc2c(c1)C(=O)N(c1ccc(-c3cc(C(C)(C)C)c(Oc4ccc(N5C(=O)c6ccc(*)cc6C5=O)cc4C(F)(F)F)c(C(C)(C)C)c3)cc1)C2=O (repeat unit)
256.00 | *Oc1ccc(NC(=O)c2cccc(C(=O)Nc3ccc(Oc4ccc(C5(c6ccc(*)cc6)CC6CCC5C6)cc4)cc3)c2)cc1 (repeat unit)
203.00 | *Nc1cccc(CCc2ccc(NC(=O)c3ccc(C(*)=O)cc3)cc2)c1 (repeat unit)
128.00 | *CCCCCCCCOc1ccc(NC(=O)c2cccc(C(=O)Nc3ccc(O*)cc3)c2)cc1 (repeat unit)
361.00 | *c1ccc(Oc2ccc(-c3c4ccccc4c(-c4ccc(Oc5ccc(-c6c7c(c(*)c8ccccc68)C(=O)N(c6ccccc6)C7=O)cc5)c(C(F)(F)F)c4)c4ccccc34)cc2C(F)(F)F)cc1 (repeat unit)
127.00 | *CC(O)CN(C)S(=O)(=O)c1cccc(S(=O)(=O)N(C)CC(O)COc2ccc(C3(c4ccc(O*)cc4)c4ccccc4-c4ccccc43)cc2)c1 (repeat unit)
212.00 | *c1ccc(C(=O)Oc2c(C)cc(C(c3cccnc3)c3cc(C)c(OC(=O)c4ccc(N5C(=O)CC(Nc6ccc(NC7CC(=O)N(*)C7=O)cc6)C5=O)cc4)c(C)c3)cc2C)cc1 (repeat unit)
250.00 | *c1ccc2c(c1)C(=O)N(c1cc(C(=O)Nc3c(C)cc(-c4cc(C)c(NC(=O)c5ccc(C)c(N6C(=O)c7ccc(C(*)(C(F)(F)F)C(F)(F)F)cc7C6=O)c5)c(C)c4)cc3C)ccc1C)C2=O (repeat unit)
381.50 | *c1ccc(-c2cc(C(C)(C)C)c(Oc3ccc(N4C(=O)c5ccc(-c6ccc7c(c6)C(=O)N(*)C7=O)cc5C4=O)cc3)c(C(C)(C)C)c2)cc1 (repeat unit)
177.00 | *C(=O)Nc1ccc(Oc2ccc(C(C)(C)c3cccc(C(C)(C)c4ccc(Oc5ccc(N6C(=O)c7ccc(*)cc7C6=O)cc5)cc4)c3)cc2)cc1 (repeat unit)
272.00 | *c1c(C)cc(Cc2cc(C)c(N3C(=O)c4ccc(Oc5ccc6ccc(Oc7ccc8c(c7)C(=O)N(*)C8=O)cc6c5)cc4C3=O)c(C)c2)cc1C (repeat unit)
